Data: US10610524B2, “Cellular hydration compositions” (Eastpond Laboratories Limited, priority 2010, dated 2020)

How the values were obtained:
[1] = NIR spectroscopy of water bonding with cyclodextrin additives; type: physicochemical
Procedure: Hydration bond energies in pure waters and solutions of the same waters containing cyclodextrin compounds were assayed using IR spectroscopy in the near and middle infrared ranges. To record linear signals throughout an entire wavelength range, attenuation from water absorbance was minimized with a short optical length cuvette.
NIR range spectra were registered on a FOSS NIR Systems, Inc. 6500 spectrometer and Sample Transport Module (STM) using a 1 mm-es cuvette. […]
Three samples of water were used in the present study. A first water sample (USA I) was obtained from the U.S. and was purified by reverse osmosis, carbon filtration, ultraviolet light exposure, membrane filtration to 0.2 micron absolute, and ozonation. A second water sample (USA II) was also obtained from the U.S. A third water sample (BP I) was obtained from Budapest, Hungary.
The following cyclodextrins were added to the above described water samples at a concentration range of 0.1%-5% w/v: • α-cyclodextrin (αCD also denoted as ACD), Lot. No. CYL-2322. • β-cyclodextrin (βCD also denoted as BCD). Lot. No. CYL-2518/2. • γ-cyclodextrin (γCD also denoted as GCD), Lot. No. CYL-2323. • 2-hydroxypropyl-β-cyclodextrin (HPβCD, HPBCD), DS*=3.5, Lot. No. CYL-2232. • 2-hydroxypropyl-γ-cyclodextrin (HPCD, HPGCD), DS*=4.8, Lot. No. CYL-2258. • carboxymethyl-β-cyclodextrin (CMBCD), Lot. No. CYL-2576. • quaternary-ammonium-β-cyclodextrin (QABCD).

C. elegans nematodes = assay: Lifespan of C. elegans in hydration modified water media; type: in vivo; conditions: for Animals alive: USA I water; for effect on C. elegans survival: added to culture media, result in words
Procedure: C. elegans nematodes were grown in petri-type dishes containing normal nutrient liquid media prepared alternatively with USA I water (described in Example 2) lacking any further additive component (control) or the same water supplemented with a parent α-, β-, or γ-cyclodextrin, and/or a bioactive agent, as an active component of cellular hydration. Fifty±3 worms were transferred to each dish. Each condition was repeated in triplicate. Experiments were repeated for USA II and BP I waters described in Example 2. A. Addition of parent α-, β- and γ-cyclodextrins. B. Addition of L-arginine and nicotinamide. C. Addition of inclusion complexes of cyclodextrins with L-arginine and nicotinamide.

[2] = system: Wheat seeds (Triticum aestivum); assay: Wheat seed germination kinetics in additive-modified water; type: in vivo; conditions: additive 0.5% w/v in USA I water
Procedure: Wheat seeds (Triticum aestivum) were germinated using USA I, USA II, and BP I waters described for Example 2. Germination rate using un-supplemented (control) water was compared to that with the same water variously supplemented with a cyclodextrin component, and/or a bioactive agent, as an active component of cellular hydration. For each condition, ten seeds were placed in continuous water contact in a Petri-type dish kept at 25 C in 12 hr light/dark cycles. Photometric images were recorded on days 1 to 6 after seeding. The percentage of seeds germinated was calculated and compared as a function of time and of the applied additive concentrations.
Water samples for seed germination were used alone with no additive, or containing cyclodextrins, or containing clathrate inclusion complexes of cyclodextrin with L-arginine or with nicotinamide (both obtained from Sigma Chemical Co.; St. Louis, Mo.), or with L-carnitine (from Lonza AG; Switzerland). […] Additive solutions were prepared fresh on the day of germination start.
Parent cyclodextrins α-cyclodextrin (ACD), β-cyclodextrin (BCD), and γ-cyclodextrin (GCD), were obtained from Wacker Chemie (Munich, Germany). The following derivatized cyclodextrins were obtained from Cyclolab Ltd. (Budapest, Hungary): hydroxypropylated-beta-cyclodextrin (DS˜3)(HPBCD), carboxymethylated-β-cyclodextrin (DS˜3.5)(CMBCD), 2-hydroxy-3-N,N,N-trimethylamino)propyl-β-cyclodextrin chloride (DS˜3.6)(QABCD).
Germination kinetics in control and additive-modified water under identical conditions were quantified as the percentage of the seeds having a sprout. Each determination consisted of 100 seeds for each parameter. Results are reported in Table 1, below, and in FIGS. 11-13.

[3] = wavelength region 900-1200 nm, FIG. 7
[4] = life span 10 days, derivatized cyclodextrin 0.1% w/v in media, Table 4
[5] = life span 15 days, derivatized cyclodextrin 0.1% w/v in media, Table 4
[6] = life span 18 days, derivatized cyclodextrin 0.1% w/v in media, Table 4
[7] = life span 10 days, parent cyclodextrin 0.1% w/v in media, Table 3
[8] = life span 15 days, parent cyclodextrin 0.1% w/v in media, Table 3
[9] = life span 18 days, parent cyclodextrin 0.1% w/v in media, Table 3

| water-bond interactions, second-derivative NIR spectra ([1]; 1200-1500 nm, FIG. 8) | water-bond interactions, second-derivative NIR spectra ([1]; 1620-1710 nm, FIG. 9) | water-bond interactions, second-derivative NIR spectra ([1]; 2170-2370 nm, FIG. 10) | water-bond interactions, second-derivative NIR spectra [1, 3] | Compound | Animals alive (C. elegans nematodes; [4]) | Animals alive (C. elegans nematodes; [5]) | Animals alive (C. elegans nematodes; [6]) | Animals alive (C. elegans nematodes; [7]) | Animals alive (C. elegans nematodes; [8]) | Animals alive (C. elegans nematodes; [9]) | also measured |
| --- | --- | --- | --- | --- | --- | --- | --- | --- | --- | --- | --- |
| significantly modified | significantly modified | further significantly modified | significantly modified | 2-hydroxy-3-N,N,N-trimethylamino)propyl-β-cyclodextrin chloride [Quaternaryammonium-β-Cyclodextrin] | 98 % of initial | 13 % of initial | 2 % of initial | – | – | – | modified micro-structure of hydrogen bonds in bulk water (spectral changes), ranking of effect ([1]; among cyclodextrin-treated water samples, FIGS. 9 and 10): largest |
| significantly modified | significantly modified | significantly modified | further significantly modified | CC(O)COC[C@H]1O[C@@H]2O[C@H]3[C@H](O)[C@@H](O)[C@@H](O[C@H]4[C@H](O)[C@@H](O)[C@@H](O[C@H]5[C@H](O)[C@@H](O)[C@@H](O[C@H]6[C@H](O)[C@@H](O)[C@@H](O[C@H]7[C@H](O)[C@@H](O)[C@@H](O[C@H]8[C@H](O)[C@@H](O)[C@@H](O[C@H]1[C@H](O)[C@H]2O)O[C@@H]8COCC(C)O)O[C@@H]7COCC(C)O)O[C@@H]6COCC(C)O)O[C@@H]5COCC(C)O)O[C@@H]4COCC(C)O)O[C@@H]3COCC(C)O (stereo partly drawn) [HP-β-Cyclodextrin, 2-hydroxypropyl-β-cyclodextrin] | 96 % of initial | 17 % of initial | 0 % of initial | – | – | – | – |
| – | – | – | – | N=C(N)NCCC[C@H](N)C(=O)O [L-Arg, L-arginine, reference compound] | – | – | – | – | – | – | wheat seed germination rate ([2]; day 0, Table 1): 0 percentage of total seeds; wheat seed germination rate ([2]; day 1, Table 1): 0 percentage of total seeds; wheat seed germination rate ([2]; day 2, Table 1): 30 percentage of total seeds; wheat seed germination rate ([2]; day 3, Table 1): 45 percentage of total seeds; wheat seed germination rate ([2]; day 4, Table 1): 60 percentage of total seeds; effect on C. elegans survival (C. elegans nematodes): little effect |
| – | – | – | – | NC(=O)c1cccnc1 [nicotinamide, reference compound] | – | – | – | – | – | – | wheat seed germination rate ([2]; day 0, Table 2): 0 percentage of the seeds; wheat seed germination rate ([2]; day 1, Table 2): 0 percentage of the seeds; wheat seed germination rate ([2]; day 2, Table 2): 4 percentage of the seeds; wheat seed germination rate ([2]; day 3, Table 2): 10 percentage of the seeds; wheat seed germination rate ([2]; day 4, Table 2): 60 percentage of the seeds; effect on C. elegans survival (C. elegans nematodes): little effect |
| – | – | – | – | OC[C@H]1O[C@@H]2O[C@H]3[C@H](O)[C@@H](O)[C@@H](O[C@H]4[C@H](O)[C@@H](O)[C@@H](O[C@H]5[C@H](O)[C@@H](O)[C@@H](O[C@H]6[C@H](O)[C@@H](O)[C@@H](O[C@H]7[C@H](O)[C@@H](O)[C@@H](O[C@H]1[C@H](O)[C@H]2O)O[C@@H]7CO)O[C@@H]6CO)O[C@@H]5CO)O[C@@H]4CO)O[C@@H]3CO [α-Cyclodextrin, α-cyclodextrin] | – | – | – | 100 % of initial | 20 % of initial | 2 % of initial | wheat seed germination rate ([2]; day 0, Table 1): 0 percentage of total seeds; wheat seed germination rate ([2]; day 0, Table 2): 0 percentage of the seeds; wheat seed germination rate ([2]; day 1, Table 1): 0 percentage of total seeds; wheat seed germination rate ([2]; day 1, Table 2): 11 percentage of the seeds; wheat seed germination rate ([2]; day 2, Table 1): 48 percentage of total seeds; wheat seed germination rate ([2]; day 2, Table 2): 18 percentage of the seeds; wheat seed germination rate ([2]; day 3, Table 1): 70 percentage of total seeds; wheat seed germination rate ([2]; day 3, Table 2): 68 percentage of the seeds; wheat seed germination rate ([2]; day 4, Table 1): 85 percentage of total seeds; wheat seed germination rate ([2]; day 4, Table 2): 92 percentage of the seeds |
| – | – | – | – | OC[C@H]1O[C@@H]2O[C@H]3[C@H](O)[C@@H](O)[C@@H](O[C@H]4[C@H](O)[C@@H](O)[C@@H](O[C@H]5[C@H](O)[C@@H](O)[C@@H](O[C@H]6[C@H](O)[C@@H](O)[C@@H](O[C@H]7[C@H](O)[C@@H](O)[C@@H](O[C@H]8[C@H](O)[C@@H](O)[C@@H](O[C@H]1[C@H](O)[C@H]2O)O[C@@H]8CO)O[C@@H]7CO)O[C@@H]6CO)O[C@@H]5CO)O[C@@H]4CO)O[C@@H]3CO [β-Cyclodextrin, β-cyclodextrin] | – | – | – | 100 % of initial | 18 % of initial | 0 % of initial | – |
| – | – | – | – | OC[C@H]1O[C@@H]2O[C@H]3[C@H](O)[C@@H](O)[C@@H](O[C@H]4[C@H](O)[C@@H](O)[C@@H](O[C@H]5[C@H](O)[C@@H](O)[C@@H](O[C@H]6[C@H](O)[C@@H](O)[C@@H](O[C@H]7[C@H](O)[C@@H](O)[C@@H](O[C@H]8[C@H](O)[C@@H](O)[C@@H](O[C@H]9[C@H](O)[C@@H](O)[C@@H](O[C@H]1[C@H](O)[C@H]2O)O[C@@H]9CO)O[C@@H]8CO)O[C@@H]7CO)O[C@@H]6CO)O[C@@H]5CO)O[C@@H]4CO)O[C@@H]3CO [γ-Cyclodextrin, γ-cyclodextrin] | – | – | – | 100 % of initial | 13 % of initial | 2 % of initial | – |
| further significantly modified | significantly modified | significantly modified | further significantly modified | carboxymethyl-β-cyclodextrin | 94 % of initial | 11 % of initial | 0 % of initial | – | – | – | – |
